In test [1] the test system is secretion of ACTH and β-END-LI.
Test [2] deals with cultured rat pituitary cells. The format is cell-based.

Non-standard residues stand in square brackets, D forms with d. Residues, ends and D or L forms follow the SMILES beside them. hArg = N=C(N)NCCCC[C@H](N)C(=O)O; Nle = CCCC[C@H](N)C(=O)O

Take “H-Asp-CML-Thr-Leu-Glu -CML-CML-Arg-Glu-Met-CML-Glu-Met-CMA-Arg-Ala-Glu-Gln-CML -Ala-Glu-Gln-Ala-CMA-CML-Asn-Arg-Leu-CML-Leu-Glu-Glu-CMA-NH2”: in test [1], the “secretion of ACTH (inhibition)” value was “inhibits” and the “secretion of β-END-LI (inhibition)” value was “inhibits”. Take “H-DLTFHLLREVLEMARAEQLAQQAHSNRRLMEII-NH2 [[Arg^36]-rCRF (9-41)]”: the “secretion of ACTH (inhibition)” value in test [1] is reported as “inhibits”. In the case of “H-IDLTFHLLRNMIEMARNENQREQAGLNRRYLDEV-NH2 [[Arg^36]-Carp Urotensin I(8-41)]”, in test [1], the “secretion of ACTH (inhibition)” value is on record as “inhibits” and the “secretion of β-END-LI (inhibition)” value is recorded as “inhibits”. In the case of `CCCC[C@H](NC(=O)[C@H](CCC(=O)O)NC(=O)[C@H](CC(C)C)NC(=O)[C@H](CCCC)NC(=O)[C@H](CCC(=O)O)NC(=O)[C@H](CCCNC(=N)N)NC(=O)[C@H](CC(C)C)NC(=O)[C@H](CC(C)C)NC(=O)[C@H](Cc1c[nH]cn1)NC(=O)[C@H](Cc1ccccc1)NC(=O)[C@@H](NC(=O)[C@H](CC(C)C)NC(=O)[C@H](CC(=O)O)NC(=O)[C@H](CC(C)C)NC(=O)[C@H](CO)NC(=O)[C@@H](NC(=O)[C@@H]1CCCN1C(=O)[C@@H]1CCCN1C(=O)[C@H](N)Cc1ccc(O)cc1)[C@@H](C)CC)[C@@H](C)O)C(=O)N[C@@H](C)C(=O)N[C@@H](CCCNC(=N)N)C(=O)N[C@@H](C)C(=O)N[C@@H](CCC(=O)O)C(=O)N[C@@H](CCC(N)=O)C(=O)N[C@@H](CCC(=O)O)C(=O)N[C@@H](C)C(=O)N[C@@H](CCC(=O)O)C(=O)N[C@@H](CCC(N)=O)C(=O)N[C@@H](C)C(=O)N[C@@H](C)C(=O)N[C@@H](CC(C)C)C(=O)N[C@@H](CC(N)=O)C(=O)N[C@@H](CCCNC(=N)N)C(=O)N[C@@H](CC(C)C)C(=O)N[C@@H](CC(C)C)C(=O)N[C@@H](CC(C)C)C(=O)N[C@@H](CCC(=O)O)C(=O)N[C@@H](CCC(=O)O)C(=O)N[C@@H](C)C(N)=O` [[D-Tyr^3, Nle^18,21]-AAHC(3-41)] (H-[dY]PPISLDLTFHLLRE[Nle]LE[Nle]ARAEQEAEQAALNRLLLEEA-NH2), in test [2], the “secretion of ACTH” value is on record as “stimulates” and the “secretion of β-endorphin (β-END-LI)” value was “stimulates”. For the compound “H-GEEPPISLDLTFHLLREVLEMARAEQLAQQAHLNRRLMEEI-NH2 [[Gly^1, Leu^33, Glu^40]-rCRF]”, in test [2], the “secretion of ACTH” value is on record as “stimulates” and the “secretion of β-endorphin (β-END-LI)” value is “stimulates”. As for “H-SQE[dP]PISLDLTFHLLRE[Nle]LE[Nle]ARAEQEAEQAALNRLLLEEA-NH2 [[D-Pro^4, Nle^18,21]-AAHC]”, in test [2], the “secretion of ACTH” value was “stimulates” and the “secretion of β-endorphin (β-END-LI)” value is on record as “stimulates”. For “H-Ser-Gln-Glu-Pro-Pro-Ile-Ser-Leu-Asp-CML-Thr-Leu-Glu-Leu -Leu-Arg-Glu-Met-Leu-Glu-Met-Ala-Arg-Ala-Glu-Gln-Glu-Ala -Glu-Gln-Ala-Ala-Leu-Asn-Arg-Leu-Tyr-Leu-Glu-Glu-Ala-NH2 [[Leu^12, Glu^13, Tyr^37]-AAHC]”, in test [2], the “secretion of ACTH” value is listed as “stimulates” and the “secretion of β-endorphin (β-END-LI)” value is recorded as “stimulates”. For `CCCC[C@H](NC(=O)[C@H](CCC(=O)O)NC(=O)[C@H](CC(C)C)NC(=O)[C@H](CCCC)NC(=O)[C@H](CCC(=O)O)NC(=O)[C@H](CCCNC(=N)N)NC(=O)[C@H](CC(C)C)NC(=O)[C@H](CC(C)C)NC(=O)[C@H](Cc1c[nH]cn1)NC(=O)[C@H](Cc1ccccc1)NC(=O)[C@@H](NC(=O)[C@H](CC(C)C)NC(=O)[C@H](CC(=O)O)NC(=O)[C@H](CC(C)C)NC(=O)[C@H](CO)NC(=O)[C@@H](N)[C@@H](C)CC)[C@@H](C)O)C(=O)N[C@@H](C)C(=O)N[C@@H](CCCNC(=N)N)C(=O)N[C@@H](C)C(=O)N[C@@H](CCC(=O)O)C(=O)N[C@@H](CCC(N)=O)C(=O)N[C@@H](CCC(=O)O)C(=O)N[C@@H](C)C(=O)N[C@@H](CCC(=O)O)C(=O)N[C@@H](CCC(N)=O)C(=O)N[C@@H](C)C(=O)N[C@@H](C)C(=O)N[C@@H](CC(C)C)C(=O)N[C@@H](CC(N)=O)C(=O)N[C@@H](CCCNC(=N)N)C(=O)N[C@@H](CCCNC(=N)N)C(=O)N[C@@H](CC(C)C)C(=O)N[C@@H](CC(C)C)C(=O)N[C@@H](CCC(=O)O)C(=O)N[C@@H](CCC(=O)O)C(=O)N[C@@H](C)C(N)=O` [[Nle^18,21, Arg^36]-AAHC(6-41)] (H-ISLDLTFHLLRE[Nle]LE[Nle]ARAEQEAEQAALNRRLLEEA-NH2), in test [2], the “secretion of ACTH” value is reported as “stimulates” and the “secretion of β-endorphin (β-END-LI)” value was “stimulates”. On to `CCCC[C@H](NC(=O)[C@H](CCC(=O)O)NC(=O)[C@H](CC(C)C)NC(=O)[C@H](CCCC)NC(=O)[C@H](CCC(=O)O)NC(=O)[C@H](CCCNC(=N)N)NC(=O)[C@H](CC(C)C)NC(=O)[C@H](CC(C)C)NC(=O)[C@H](Cc1c[nH]cn1)NC(=O)[C@H](Cc1ccccc1)NC(=O)[C@@H](NC(=O)[C@H](CC(C)C)NC(=O)[C@H](CC(=O)O)NC(=O)[C@H](CC(C)C)NC(=O)[C@H](CO)NC(=O)[C@@H](NC(=O)[C@@H]1CCCN1C(=O)[C@H]1CCCN1)[C@@H](C)CC)[C@@H](C)O)C(=O)N[C@@H](C)C(=O)N[C@@H](CCCNC(=N)N)C(=O)N[C@@H](C)C(=O)N[C@@H](CCC(=O)O)C(=O)N[C@@H](CCC(N)=O)C(=O)N[C@@H](CCC(=O)O)C(=O)N[C@@H](C)C(=O)N[C@@H](CCC(=O)O)C(=O)N[C@@H](CCC(N)=O)C(=O)N[C@@H](C)C(=O)N[C@@H](C)C(=O)N[C@@H](CC(C)C)C(=O)N[C@@H](CC(N)=O)C(=O)N[C@@H](CCCNC(=N)N)C(=O)N[C@@H](CC(C)C)C(=O)N[C@@H](CC(C)C)C(=O)N[C@@H](CC(C)C)C(=O)N[C@@H](CCC(=O)O)C(=O)N[C@@H](CCC(=O)O)C(=O)N[C@@H](C)C(N)=O` [[D-Pro^4, Nle^18,21]-AAHC(4-41)] (H-[dP]PISLDLTFHLLRE[Nle]LE[Nle]ARAEQEAEQAALNRLLLEEA-NH2), for which, in test [2], the “secretion of ACTH” value is given as “stimulates” and the “secretion of β-endorphin (β-END-LI)” value is “stimulates”. “H-PPISLDLTFHLLREVLEMARAEQLAQQAHLNRRLMEEI-NH2”: in test [2], the “secretion of ACTH” value is “stimulates” and the “secretion of β-endorphin (β-END-LI)” value is listed as “stimulates”. As to “H-SEEPPIS[Nle]DLSFHLLREVLEMARAEQLAQQAHLNRRLMEEI-NH2”, in test [2], the “secretion of ACTH” value is given as “stimulates” and the “secretion of β-endorphin (β-END-LI)” value is “stimulates”.

As to `CCCC[C@H](NC(=O)[C@H](CCC(=O)O)NC(=O)[C@H](CC(C)C)NC(=O)[C@H](CCCC)NC(=O)[C@H](CCC(=O)O)NC(=O)[C@H](CCCNC(=N)N)NC(=O)[C@H](CC(C)C)NC(=O)[C@H](CC(C)C)NC(=O)[C@H](Cc1c[nH]cn1)NC(=O)[C@H](Cc1ccccc1)NC(=O)[C@@H](NC(=O)[C@H](CC(C)C)NC(=O)[C@H](CC(=O)O)NC(=O)[C@H](CC(C)C)NC(=O)[C@H](CO)NC(=O)[C@@H](NC(=O)[C@@H]1CCCN1)[C@@H](C)CC)[C@@H](C)O)C(=O)N[C@@H](C)C(=O)N[C@@H](CCCNC(=N)N)C(=O)N[C@@H](C)C(=O)N[C@@H](CCC(=O)O)C(=O)N[C@@H](CCC(N)=O)C(=O)N[C@@H](CCC(=O)O)C(=O)N[C@@H](C)C(=O)N[C@@H](CCC(=O)O)C(=O)N[C@@H](CCC(N)=O)C(=O)N[C@@H](C)C(=O)N[C@@H](C)C(=O)N[C@@H](CC(C)C)C(=O)N[C@@H](CC(N)=O)C(=O)N[C@@H](CCCNC(=N)N)C(=O)N[C@@H](CC(C)C)C(=O)N[C@@H](CC(C)C)C(=O)N[C@@H](CC(C)C)C(=O)N[C@@H](CCC(=O)O)C(=O)N[C@@H](CCC(=O)O)C(=O)N[C@@H](C)C(N)=O` [[Nle^18,21, ]-AAHC(5-41)] (H-PISLDLTFHLLRE[Nle]LE[Nle]ARAEQEAEQAALNRLLLEEA-NH2), in test [2], the “secretion of ACTH” value was “stimulates” and the “secretion of β-endorphin (β-END-LI)” value is recorded as “stimulates”. On to “H-SEEPPISLDLTFHLLREVLE[Nle]ARAEQLAEQAHSNRRL[Nle]EII-NH2 [[Nle^21,38, Glu^29, Arg^36]-rCRF]”, for which, in test [2], the “secretion of ACTH” value is given as “stimulates” and the “secretion of β-endorphin (β-END-LI)” value was “stimulates”.

For “H-SQ[dY][dP]PISLDLTFHLLRE[Nle]LE[Nle]ARAEQEAEQAALNRLLLEEA-NH2 [[D-Tyr^3, D-Pro^4, Nle^18, 21]-AAHC]”, in test [2], the “secretion of ACTH” value was “stimulates” and the “secretion of β-endorphin (β-END-LI)” value is “stimulates”. As to “H-SQEPPISLDLTFHLLREMLEMARAEQEAEQAALNRLLLEEA-NH2 [AAHC]”, in test [2], the “secretion of ACTH” value is listed as “biologically potent to stimulate the secretion” and the “secretion of β-endorphin (β-END-LI)” value is “biologically potent to stimulate the secretion”. On to “H-SEEPPISLDLTLELLREMLEME[hArg]AEREAEQAALNRLLLEEA-NH2”, for which, in test [2], the “secretion of ACTH” value is given as “stimulates” and the “secretion of β-endorphin (β-END-LI)” value is given as “stimulates”. Take “H-VSEPPISLDLTFHLLREVLEMARAEQLAQQAHSNRRLMEEI-NH2 [[Val^1, Ser^2, Arg^36, Glu^40]-rCRF]”: in test [2], the “secretion of ACTH” value is reported as “stimulates” and the “secretion of β-endorphin (β-END-LI)” value is “stimulates”. As to “H-SQEPPISLDLTFHLLREVLE[Nle]TRADQLAQQAHSNRRLLDIA-NH2 [[Nle^21, Arg^23,36]-oCRF]”, in test [2], the “secretion of ACTH” value is on record as “stimulates” and the “secretion of β-endorphin (β-END-LI)” value is on record as “stimulates”.

On to “H-SQEPPISLDLTFHLLREVLEMARAEQLAEQAHSNRRLLEII-NH2 [[Gln^2, Glu^29, Leu^38]-rCRF]”, for which, in test [2], the “secretion of ACTH” value is on record as “stimulates” and the “secretion of β-endorphin (β-END-LI)” value is listed as “stimulates”. Consider “H-SQEPPISLDLTFALLREMLEMARAEQEAEQAALNRLLLEEA-NH2 [[Ala13]-AAHC]”, for which, in test [2], the “secretion of ACTH” value is “stimulates” and the “secretion of β-endorphin (β-END-LI)” value is on record as “stimulates”.

For “H-SEEPPISLELTFHLLREVLE[Nle]ARAEQLAEQAHLNRRL[Nle]EII-NH2”, in test [2], the “secretion of ACTH” value is recorded as “stimulates” and the “secretion of β-endorphin (β-END-LI)” value is recorded as “stimulates”. As to “H-SQEPPISLDLTFHLLREVLEMTRADQLAQQAHSNRRLLDIA-NH2 [[Arg^23,36]-oCRF]”, in test [2], the “secretion of ACTH” value is reported as “stimulates” and the “secretion of β-endorphin (β-END-LI)” value is reported as “stimulates”.

The values are drawn from patent publication US5132111A (priority 1990, dated 1992).
